Measured values taken from the supplement of paper PMC12076712.

Experiments:
Assay in all cases: pIC50, kinobeads binding competition
Conditions in all cases: cell material: Jurkat lysate
[1] = molecular target: BUB1 (UniProt O43683)
[2] = molecular target: T1, EPHA3 (UniProt P29320)
T1 sequence (whole entry): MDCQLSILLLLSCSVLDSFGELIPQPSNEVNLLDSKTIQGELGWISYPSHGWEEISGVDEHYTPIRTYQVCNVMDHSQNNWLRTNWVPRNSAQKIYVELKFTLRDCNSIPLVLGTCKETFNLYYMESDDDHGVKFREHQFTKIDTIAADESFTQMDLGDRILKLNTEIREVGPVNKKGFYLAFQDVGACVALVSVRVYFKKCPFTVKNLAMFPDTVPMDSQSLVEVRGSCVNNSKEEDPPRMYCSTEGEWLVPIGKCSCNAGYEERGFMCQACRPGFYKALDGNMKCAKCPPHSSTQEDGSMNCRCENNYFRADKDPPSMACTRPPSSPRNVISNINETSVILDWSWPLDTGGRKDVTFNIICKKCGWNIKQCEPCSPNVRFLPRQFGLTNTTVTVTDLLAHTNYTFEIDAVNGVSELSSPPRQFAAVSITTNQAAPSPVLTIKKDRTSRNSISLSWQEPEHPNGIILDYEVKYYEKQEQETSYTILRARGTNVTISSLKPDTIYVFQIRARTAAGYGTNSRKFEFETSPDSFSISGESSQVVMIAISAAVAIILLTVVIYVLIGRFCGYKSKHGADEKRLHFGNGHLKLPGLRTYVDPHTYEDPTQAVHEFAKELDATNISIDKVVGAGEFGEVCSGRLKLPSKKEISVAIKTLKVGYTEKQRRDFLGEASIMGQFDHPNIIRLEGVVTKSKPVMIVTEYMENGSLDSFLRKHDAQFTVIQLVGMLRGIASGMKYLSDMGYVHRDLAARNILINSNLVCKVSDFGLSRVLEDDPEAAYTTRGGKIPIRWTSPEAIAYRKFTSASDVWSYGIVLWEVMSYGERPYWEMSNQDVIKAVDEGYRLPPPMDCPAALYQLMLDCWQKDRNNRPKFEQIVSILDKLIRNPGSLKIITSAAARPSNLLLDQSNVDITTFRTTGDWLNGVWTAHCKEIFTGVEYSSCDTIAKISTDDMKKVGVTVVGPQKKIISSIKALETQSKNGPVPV

[3] = molecular target: T2, MARK4 (UniProt Q96L34)
T2 sequence (whole entry): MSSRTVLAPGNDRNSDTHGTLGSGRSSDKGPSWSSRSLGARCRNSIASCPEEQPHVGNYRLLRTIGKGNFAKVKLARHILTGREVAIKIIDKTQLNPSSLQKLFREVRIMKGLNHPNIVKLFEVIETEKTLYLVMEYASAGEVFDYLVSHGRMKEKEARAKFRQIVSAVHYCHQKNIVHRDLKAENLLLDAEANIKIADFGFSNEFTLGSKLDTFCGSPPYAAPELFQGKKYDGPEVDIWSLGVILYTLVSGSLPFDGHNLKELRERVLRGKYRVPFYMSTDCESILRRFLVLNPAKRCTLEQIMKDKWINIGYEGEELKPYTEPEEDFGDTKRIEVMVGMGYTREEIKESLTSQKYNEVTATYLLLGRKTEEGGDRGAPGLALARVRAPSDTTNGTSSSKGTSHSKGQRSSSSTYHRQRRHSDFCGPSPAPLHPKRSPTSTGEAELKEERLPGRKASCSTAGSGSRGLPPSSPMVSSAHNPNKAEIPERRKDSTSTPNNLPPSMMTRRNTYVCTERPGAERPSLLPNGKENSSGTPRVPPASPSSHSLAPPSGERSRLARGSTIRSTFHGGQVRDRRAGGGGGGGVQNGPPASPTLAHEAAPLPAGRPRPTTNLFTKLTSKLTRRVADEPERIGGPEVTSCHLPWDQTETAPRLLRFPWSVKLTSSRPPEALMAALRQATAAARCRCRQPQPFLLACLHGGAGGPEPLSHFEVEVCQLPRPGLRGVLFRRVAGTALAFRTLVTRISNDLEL

[4] = molecular target: T3, NEK1 (UniProt Q96PY6)
T3 sequence (whole entry): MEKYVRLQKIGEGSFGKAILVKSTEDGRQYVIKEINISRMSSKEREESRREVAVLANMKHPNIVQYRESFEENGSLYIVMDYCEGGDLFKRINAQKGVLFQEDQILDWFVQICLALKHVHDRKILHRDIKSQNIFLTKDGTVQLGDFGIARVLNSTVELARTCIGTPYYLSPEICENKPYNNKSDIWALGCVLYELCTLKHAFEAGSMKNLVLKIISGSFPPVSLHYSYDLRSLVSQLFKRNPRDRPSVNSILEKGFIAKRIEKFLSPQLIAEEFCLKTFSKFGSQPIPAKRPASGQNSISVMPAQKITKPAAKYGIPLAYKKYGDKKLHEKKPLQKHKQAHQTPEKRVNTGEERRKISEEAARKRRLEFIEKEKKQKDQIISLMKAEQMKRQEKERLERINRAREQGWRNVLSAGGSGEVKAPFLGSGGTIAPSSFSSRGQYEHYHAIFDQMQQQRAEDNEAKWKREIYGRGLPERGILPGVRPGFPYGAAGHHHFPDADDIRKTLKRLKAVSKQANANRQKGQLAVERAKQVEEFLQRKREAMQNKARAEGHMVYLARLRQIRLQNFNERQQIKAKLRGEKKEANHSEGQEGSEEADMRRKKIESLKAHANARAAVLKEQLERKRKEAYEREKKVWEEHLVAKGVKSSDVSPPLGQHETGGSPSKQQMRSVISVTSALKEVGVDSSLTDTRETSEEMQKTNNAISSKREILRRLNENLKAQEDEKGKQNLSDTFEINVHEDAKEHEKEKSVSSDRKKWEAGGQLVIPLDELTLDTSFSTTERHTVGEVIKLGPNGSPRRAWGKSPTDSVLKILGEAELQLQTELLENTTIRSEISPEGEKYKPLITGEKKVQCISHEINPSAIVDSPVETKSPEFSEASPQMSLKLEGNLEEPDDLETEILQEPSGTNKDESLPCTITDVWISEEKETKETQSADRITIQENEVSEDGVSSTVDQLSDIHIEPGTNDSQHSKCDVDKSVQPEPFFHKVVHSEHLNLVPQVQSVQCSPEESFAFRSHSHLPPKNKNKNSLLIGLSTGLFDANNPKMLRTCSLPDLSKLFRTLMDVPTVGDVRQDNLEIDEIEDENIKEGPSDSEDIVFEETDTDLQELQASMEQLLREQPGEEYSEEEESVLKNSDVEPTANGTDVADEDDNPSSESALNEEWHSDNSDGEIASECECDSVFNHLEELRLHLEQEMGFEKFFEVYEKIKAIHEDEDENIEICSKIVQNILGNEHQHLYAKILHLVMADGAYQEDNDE

Sequence of BUB1 (O43683 whole entry, looked up): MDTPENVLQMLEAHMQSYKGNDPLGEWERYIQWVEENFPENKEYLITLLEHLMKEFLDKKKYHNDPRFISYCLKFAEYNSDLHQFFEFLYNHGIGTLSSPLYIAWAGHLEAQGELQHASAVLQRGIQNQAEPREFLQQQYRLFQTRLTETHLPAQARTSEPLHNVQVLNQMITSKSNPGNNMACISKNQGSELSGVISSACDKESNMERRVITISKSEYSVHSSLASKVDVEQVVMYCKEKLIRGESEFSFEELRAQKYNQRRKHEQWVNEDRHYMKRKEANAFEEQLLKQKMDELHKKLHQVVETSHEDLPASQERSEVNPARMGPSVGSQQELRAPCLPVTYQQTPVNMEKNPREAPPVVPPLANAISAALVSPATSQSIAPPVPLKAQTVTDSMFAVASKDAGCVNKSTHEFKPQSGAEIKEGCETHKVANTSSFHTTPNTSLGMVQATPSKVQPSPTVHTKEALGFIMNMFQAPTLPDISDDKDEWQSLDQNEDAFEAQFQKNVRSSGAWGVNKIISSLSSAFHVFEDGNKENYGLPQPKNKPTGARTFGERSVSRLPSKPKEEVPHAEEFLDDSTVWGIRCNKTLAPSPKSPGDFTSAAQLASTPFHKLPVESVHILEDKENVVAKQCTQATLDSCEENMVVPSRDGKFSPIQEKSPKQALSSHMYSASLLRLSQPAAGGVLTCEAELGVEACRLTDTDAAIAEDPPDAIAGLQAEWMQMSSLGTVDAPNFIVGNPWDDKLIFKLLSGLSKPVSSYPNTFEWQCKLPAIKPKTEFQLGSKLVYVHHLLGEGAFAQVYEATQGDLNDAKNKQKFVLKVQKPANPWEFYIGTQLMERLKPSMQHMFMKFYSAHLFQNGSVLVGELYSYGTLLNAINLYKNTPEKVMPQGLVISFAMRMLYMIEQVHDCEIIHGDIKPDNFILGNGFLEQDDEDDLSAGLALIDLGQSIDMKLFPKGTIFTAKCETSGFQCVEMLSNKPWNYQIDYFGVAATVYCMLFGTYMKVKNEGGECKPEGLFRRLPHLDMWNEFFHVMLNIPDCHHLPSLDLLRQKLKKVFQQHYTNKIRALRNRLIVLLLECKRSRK

pIC50 [1]: < 4.52
pIC50 [2]: < 4.52
pIC50 [3]: < 4.52
pIC50 [4]: < 4.52
Structure (SMILES): CCc1cnn2c(NCc3ccc[n+]([O-])c3)cc(N3CCCC[C@H]3CCO)nc12 [dinaciclib]
